Laboratory results from patent publication US10306895B2, “Plant defense signaling peptides and applications thereof” (Academia Sinica, priority 2014, dated 2019).
Ends that are not written are not given here.

Assays:
Pst DC3000 [1] = test: Pathogen challenge of presprayed Arabidopsis plants; format: in vivo, Pseudomonas syringae pv. tomato; conditions: plants sprayed with 100 nM peptide for 2 hours prior to inoculation
Experimental: The infection symptoms were observed 4 days after inoculation. The bacterial numbers were calculated 4 days after inoculation and are represented as log colony-forming units (Log CFU) per g leaf tissue. Data represent the means and SD of three biological samples.
To test the anti-pathogen activity induced by peptides in Arabidopsis, the plants were sprayed with 100 nM AtCAPE1, AtCAPE9, 100 nM flg22 or water, respectively, for 2 hours prior to pathogen challenge.
The bacterial pathogen Pseudomonas syringae pv. tomato DC3000 (Pst DC3000) or Pst DC3000 hrcC^− were grown on King's B (KB) agar medium containing 100 mg/L rifampicin for 2 days at 28° C. Before the challenge, the bacteria were cultured in KB liquid medium at 28° C. with 230 rpm shaking overnight. The bacteria were pelleted by centrifugation and resuspended in 10 mM MgSO4 at A600=0.25 (about 10^8 cfu/ml).

Pst DC3000 [2] = conditions: seedlings treated with 50 mM NaCl for 24 hours, with or without 250 nM AtCAPE1 for 6 hours
Experimental: 5 days Arabidopsis seedlings treated with 50 mM NaCl for 24 hours and following the treatment of with or without 250 nM AtCAPE1 for 6 hours. The infection symptoms were observed 4 days after Pst DC3000 inoculation. The bacterial numbers were calculated 7 days after inoculation and represented as log colony-forming units (Log CFU) per g leaf tissue. Data represent the means and SD of three biological samples.
Pst DC3000 or hrcC^− were grown in water- or peptide-treated plants for several days to observe the symptoms and then the bacteria were collected from the leaves and evaluated by bacterial titers according to a method outlined previously (Zimmerli et al., 2000).

[3] = tested on: WRKY53, PR-1b, Adi3 and ERF5 gene expression; conditions: 30 minute or 6 hours treatment of flg22 on tomato; cited from earlier work
SA accumulation = test: Salicylic acid quantitation by LC-MS/MS in excised tomato plants; format: in vivo, Solanum lycopersicum (tomato); conditions: 365 nM peptide supplied to excised plants through cut stem, 8 hours
Experimental: (§1) (a) The level of SA induced by CAPE1 and flg22. The excised plants were pretreated with 10 mM phosphate buffer (buffer) or 365 nM CAPE1 or 365 nM flg22 in buffer through the cut stem for 8 hours (n=3). The quantity of SA was quantified by LC-SRM-MS and calculated based on the abundance of spiked SA isotopic standard (d6-SA). (b) The relative expression of WRKY53 and PR-1b were quantified by comparing the expression levels in untreated detached leaves with the detached leaves treated with water, 250 nM CAPE1 or 250 nM flg22 for 2 hours (n=4). The internal control Ubi3 was used for normalization. […]
After peptide treatment, the metabolites were extracted from leaf tissues for phytohormone quantitation. […] The dried samples were dissolved in 300 μl methanol, mixed well and centrifuged at 10,000×g at 4° C. for 5 minutes and then the supernatant was transferred to the sample vial for targeted quantitation analysis using LC-MS/MS.
For phytohormone quantitation, a linear ion trap-orbitrap mass spectrometer (Orbitrap Elite, Thermo Fisher Scientific, Bremen, Germany) coupled online with a UHPLC system (ACQUITY UPLC, Waters, Millford, Mass.) was used. […] The fragmentation reactions of m/z 137.02 to 93.03 for SA, 209.12 to 59.01 for JA, 322.20 to 130.09 for JA-Ile, 141.05 to 97.06 for d6-SA and 211.13 to 59.01 for H2JA were selected for quantitation. […]

[4] = tested on: Pseudomonas syringae pv. tomato DC3000 (Pst DC3000); format: in vivo
Experimental: (a) Changes of the larval sizes after feeding with water or 250 nM CAPE1 treated tomato leaves. The larval weights of thirty larvae were recorded each day. (b) The Pst DC3000 infection phenotypes of the plants presprayed with water or 100 nM CAPE1 peptide for 2 hours (n=3) prior to pathogen inoculation. […] All statistically significant differences between the CAPE1- and water-treated samples are indicated with * (P<0.05) or *** (P<0.001) based on Student's t-test.
as §1, with “normalization. (c) The Pst DC3000 infection phenotypes for plants presprayed with water, 100 nM CAPE1 or 100 nM flg22 peptide for 2 hours (n=3) prior to the pathogen inoculation. The infection symptoms were observed 4 days after inoculation.” for “normalization.”

[5] = tested on: WRKY53 and PR-1b gene expression; test: qRT-PCR of WRKY53 and PR-1b in detached tomato leaves; format: in vivo, Solanum lycopersicum (tomato); conditions: 250 nM peptide, 2 hours
Experimental: (a) The level of SA induced by CAPE1 and flg22. The excised plants were pretreated with 10 mM phosphate buffer (buffer) or 365 nM CAPE1 or 365 nM flg22 in buffer through the cut stem for 8 hours (n=3). The quantity of SA was quantified by LC-SRM-MS and calculated based on the abundance of spiked SA isotopic standard (d6-SA). (b) The relative expression of WRKY53 and PR-1b were quantified by comparing the expression levels in untreated detached leaves with the detached leaves treated with water, 250 nM CAPE1 or 250 nM flg22 for 2 hours (n=4). The internal control Ubi3 was used for normalization. (c) The Pst DC3000 infection phenotypes for plants presprayed with water, 100 nM CAPE1 or 100 nM flg22 peptide for 2 hours (n=3) prior to the pathogen inoculation. The infection symptoms were observed 4 days after inoculation. […] A statistically significant difference compared with the correspondingly treated water (or buffer) samples is indicated with ** (P<0.01) or *** (P<0.001) based on Student's t-test.
Quantitative real-time PCR (qRT-PCR) was used to validate the expression of some specific genes. Three biological replicates were used for qRT-PCR analyses. The qRT-PCR was performed using SYBR Green reagent and ABI 7500 Real Time PCR systems (Foster City, Calif.). […]

[6] = tested on: PR-1b and WRKY53 gene expression; test: qRT-PCR of defense genes in tomato leaves pretreated with cleavage motif peptide and challenged with Pst DC3000 hrcC-; format: in vivo; conditions: 1 μM CNYDPV pretreatment for 2 h, then Pst DC3000 hrcC- challenge for 2 h
Experimental: Relative expression levels of PR-1b and WRKY53 were analyzed by qRT-PCR 2 h after challenge of 10^7 cfu/mL Pst DC3000 hrcC^− or buffer in tomato leaves, which was pretreated with water, 100 nM CAPE1 or 1 μM CNYDPV for 2 h, respectively.
Quantitative real-time PCR (qRT-PCR) was used to validate the expression of some specific genes. Three biological replicates were used for qRT-PCR analyses. The qRT-PCR was performed using SYBR Green reagent and ABI 7500 Real Time PCR systems (Foster City, Calif.). The PCR cycling steps were 50° C. for 2 min and 94° C. for 10 min for initial steps and followed by 95° C. for 15 s and 60° C. for 1 min for 40 cycles. The gene expressions across different samples were normalized with internal control EF-1α or Ubi3. The melting curve was used to verify the specificity of the PCR product.

[7] = tested on: JA and JA-Ile accumulation; test: Jasmonate hormone quantitation by LC-MS/MS in excised tomato plants; format: in vivo, Solanum lycopersicum (tomato); conditions: 365 nM peptide in buffer through the cut stem of excised plants, 2 and 4 hours
Experimental: The plants treated with 10 mM phosphate buffer (buffer), 365 nM systemin (Sys) or 365 nM CAPE1 in buffer through the cut stem for 2 and 4 hours (n=3). The quantity of JA and JA-Ile were quantified by LC-SRM-MS and calculated by the abundance of spiked standard H2JA. Data represent the means and SD of three independent biological replicates.
To compare the jasmonates induced by the peptides, the excised tomato plants were treated with 10 mM phosphate buffer, 365 nM systemin or 365 nM CAPE1 in buffer through the cut stem for 2 and 4 hours (Schaller et al., 1995; Howe et al., 1996).
After peptide treatment, the metabolites were extracted from leaf tissues for phytohormone quantitation. The extraction procedure was modified from a previously published protocol (Pan et al., 2010). The leaf tissues (about 0.6 g fresh weight) were ground into powder under liquid nitrogen and transferred to a 50 ml screw-cap tube. The frozen leaf powder was dissolved in 6 ml extraction solvent and d6-SA (3 ng to 0.6 g leaf tissue) and H2JA (15 ng to 0.6 g leaf tissue) were added as internal standards. The samples were extracted by shaking at a speed of 100 rpm at 4° C. for 30 minutes and then 12 ml dichloromethane was added to each sample and shaken at 100 rpm at 4° C. for 30 minutes. The samples were centrifuged at 13,000×g at 4° C. for 5 minutes, and two phases were formed. […]

PAGNYIGARPY (listed as Arabidopsis thaliana) [AtCAPE1]
immunity against Pst DC3000 infection in Arabidopsis (Pst DC3000 [1]): increase immunity against Pst DC3000 infection

[Cl-].[Na+] [salt, NaCl]
anti-pathogen activity in Arabidopsis after salt treatment (Pst DC3000 [2]): enhance the anti-pathogen activity

QRLSTGSRINSAKDDAAGLQIA [flg22]
PR-1b, Adi3 and ERF5 induction (public RNA-seq data) [3]: could not be significantly induced
WRKY53 induction (public RNA-seq data) [3]: could be induced
induction of SA (SA accumulation): significantly induced SA
plant resistance to Pst DC3000 infection in tomato ([4]; plants sprayed with 100 nM peptide for 2 hours prior to inoculation): resulted in plant resistance to Pst DC3000 infection
WRKY53 expression [5]: highly induced

CNYDPV
defense gene expression (PR-1b and WRKY53) in tomato [6]: decreased

AVQSKPPSKRDPPKMQTD [systemin]
induction of JA and JA-Ile [7]: significantly induced by treatment for 2 hours

PVGNWIGQRPY [CAPE1, PVGNWIGQRPY]
induction of the hypersensitive response (HR) ([4]; in vivo): without induction of the HR

PRGNYVNEKPY (listed as Arabidopsis thaliana) [AtCAPE9]
immunity against Pst DC3000 infection in Arabidopsis (Pst DC3000 [1]): increase immunity against Pst DC3000 infection
